From ChEMBL document CHEMBL2380195 (J Med Chem, 2013)
Blank lines part the entries; values can stand above or below the molecule they belong to. Active and inactive are the calls of the source. No cut-off for these calls is given here.

Columns and labels:
[1] = molecular target: T1, Prostaglandin G/H synthase 2 (Homo sapiens, UniProt P35354); experiment: Inhibition of COX-2 in human whole blood assessed as inhibition of LPS-induced plasma PGE2 level by radioimmunoassay
T1 sequence (P35354 whole entry): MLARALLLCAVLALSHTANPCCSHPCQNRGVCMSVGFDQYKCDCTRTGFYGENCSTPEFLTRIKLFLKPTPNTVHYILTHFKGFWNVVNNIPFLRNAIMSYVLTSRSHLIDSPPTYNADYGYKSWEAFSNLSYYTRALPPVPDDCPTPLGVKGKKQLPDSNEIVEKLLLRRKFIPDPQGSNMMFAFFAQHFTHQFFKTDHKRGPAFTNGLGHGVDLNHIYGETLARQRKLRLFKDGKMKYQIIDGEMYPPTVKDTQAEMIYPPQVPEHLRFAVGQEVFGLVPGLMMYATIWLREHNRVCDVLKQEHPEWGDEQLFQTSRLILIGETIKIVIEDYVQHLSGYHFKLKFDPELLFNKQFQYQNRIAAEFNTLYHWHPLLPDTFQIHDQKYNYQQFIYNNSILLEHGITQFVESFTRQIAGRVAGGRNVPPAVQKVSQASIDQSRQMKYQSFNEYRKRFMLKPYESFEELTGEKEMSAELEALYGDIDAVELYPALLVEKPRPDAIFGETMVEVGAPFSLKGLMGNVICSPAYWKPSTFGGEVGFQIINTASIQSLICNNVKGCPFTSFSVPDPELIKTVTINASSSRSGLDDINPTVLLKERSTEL

[2] = molecular target: T2, Prostaglandin G/H synthase 1 (Homo sapiens, UniProt P23219); experiment: Inhibition of COX-1 in human whole blood assessed as inhibition of serum TXB2 level after 1 hr by radioimmunoassay
T2 sequence (P23219 whole entry): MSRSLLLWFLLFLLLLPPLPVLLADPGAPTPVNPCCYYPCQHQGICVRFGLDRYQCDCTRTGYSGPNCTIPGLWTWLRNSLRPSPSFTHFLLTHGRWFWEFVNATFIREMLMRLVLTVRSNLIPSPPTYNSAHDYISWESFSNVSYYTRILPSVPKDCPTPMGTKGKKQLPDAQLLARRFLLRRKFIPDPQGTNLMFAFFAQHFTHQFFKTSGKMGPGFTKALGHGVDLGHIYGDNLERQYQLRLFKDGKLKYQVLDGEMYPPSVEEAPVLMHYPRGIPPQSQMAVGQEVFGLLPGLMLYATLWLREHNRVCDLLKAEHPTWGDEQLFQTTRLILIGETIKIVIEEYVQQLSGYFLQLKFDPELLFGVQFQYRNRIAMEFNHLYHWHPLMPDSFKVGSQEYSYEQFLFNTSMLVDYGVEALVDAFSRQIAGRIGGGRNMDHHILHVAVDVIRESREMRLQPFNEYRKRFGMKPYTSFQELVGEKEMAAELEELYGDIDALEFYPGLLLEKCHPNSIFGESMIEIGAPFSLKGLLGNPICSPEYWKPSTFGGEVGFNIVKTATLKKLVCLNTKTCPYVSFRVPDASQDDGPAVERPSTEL

Mus musculus [3] = organism: Mus musculus; experiment: Antithrombotic activity in LDLR-/- C57BL/6 mouse assessed as reduction of 11-dehydro-TXB2 level in urine at 30 mg/L after 18 weeks relative to vehicle-treated control; type: functional; set-up: scale not given: the % may be the effect or the level left
Homo sapiens = experiment: Antithrombotic activity in human assessed as reduction of 11-dehydro-TXB2 level in urine at 100 mg/day administered 6 days measured for 24 hrs post last dose relative to vehicle-treated control; type: functional; set-up: scale not given: the % may be the effect or the level left
[4] = molecular target: T2, Prostaglandin G/H synthase 1; experiment: Irreversible inhibition of COX-1 in human THP1 cells assessed as inhibition of arachidonic acid-induced TXB2 formation at 100 uM incubated for 30 mins followed by compound washout measured 30 mins post arachidonic acid challenge by radioimmunoassay; type: cell-based; settings: THP-1
[5] = molecular target: T2, Prostaglandin G/H synthase 1; experiment: Inhibition of COX-1 in human THP1 cells assessed as inhibition of arachidonic acid-induced TXB2 formation at 100 uM incubated for 30 mins prior to arachidonic acid challenge measured after 30 mins by radioimmunoassay relative to vehicle-treated control; type: cell-based; settings: THP-1
[6] = molecular target: T2, Prostaglandin G/H synthase 1; experiment: Inhibition of COX-1 in human washed platelet assessed as inhibition of 10 uM arachidonic acid-induced TXB2 formation at 0.01 to 100 uM incubated for 25 mins prior to arachidonic acid challenge measured after 30 mins by radioimmunoassay
[7] = molecular target: T2, Prostaglandin G/H synthase 1; settings: at 0.01 to 100 µM
[8] = molecular target: T2, Prostaglandin G/H synthase 1; experiment: Inhibition of COX-1 (unknown origin) in platelet rich plasma assessed as inhibition of collagen-induced TXB2 formation incubated for 5 mins prior to collagen challenge measured for 5 mins by aggregometric analysis
[9] = molecular target: T2, Prostaglandin G/H synthase 1; experiment: Inhibition of COX-1 (unknown origin) in platelet rich plasma assessed as inhibition of arachidonic acid-induced TXB2 formation incubated for 5 mins prior to arachidonic acid challenge measured for 5 mins by aggregometric analysis
[10] = molecular target: T2, Prostaglandin G/H synthase 1; experiment: Inhibition of COX-1 (unknown origin) in platelet rich plasma assessed as inhibition of collagen-induced platelet aggregation at 10 uM incubated for 5 mins prior to collagen challenge measured for 5 mins by aggregometric analysis relative to vehicle-treated control
[11] = molecular target: T2, Prostaglandin G/H synthase 1; experiment: Inhibition of COX-1 (unknown origin) in platelet rich plasma assessed as inhibition of collagen-induced platelet aggregation up to 3 uM incubated for 5 mins prior to collagen challenge measured for 5 mins by aggregometric analysis
[12] = molecular target: T2, Prostaglandin G/H synthase 1; experiment: Inhibition of COX-1 (unknown origin) in platelet rich plasma assessed as inhibition of collagen-induced platelet aggregation incubated for 5 mins prior to collagen challenge measured for 5 mins by aggregometric analysis
[13] = molecular target: T2, Prostaglandin G/H synthase 1; experiment: Inhibition of COX-1 (unknown origin) in platelet rich plasma assessed as inhibition of arachidonic acid-induced platelet aggregation at 10 uM incubated for 5 mins prior to arachidonic acid challenge measured for 5 mins by aggregometric analysis relative to vehicle-treated control
[14] = molecular target: T2, Prostaglandin G/H synthase 1; experiment: Inhibition of COX-1 (unknown origin) in platelet rich plasma assessed as inhibition of arachidonic acid-induced platelet aggregation up to 3 uM incubated for 5 mins prior to arachidonic acid challenge measured for 5 mins by aggregometric analysis
[15] = Binding affinity to human alpha1-acid glycoprotein by HPLC analysis relative to control; type: ADME; settings: pooled result: one value given for 2 cell lines, strains, targets or settings
[16] = molecular target: COX-1/COX-2 (Homo sapiens) (UniProt P35354+P23219); experiment: Selectivity ratio of IC50 for COX-2 in human whole blood to COX-1 in human whole blood; type: tissue-based
Chain of COX-1/COX-2 (Homo sapiens) (P23219 whole entry, looked up, one chain of several): as the sequence (P23219 whole entry) above

[17] = molecular target: Prostaglandin G/H synthase 2 (Homo sapiens) (UniProt P35354); experiment: Reversible inhibition of COX-2 in human MDA-MB-231 cells assessed as inhibition of arachidonic acid-induced PGE2 formation at 100 uM incubated for 30 mins followed by compound washout measured 30 mins post arachidonic acid challenge by radioimmunoassay
[18] = molecular target: Prostaglandin G/H synthase 2 (Homo sapiens) (UniProt P35354); experiment: Inhibition of COX-2 in human MDA-MB-231 cells assessed as inhibition of arachidonic acid-induced PGE2 formation at 100 uM incubated for 30 mins prior to arachidonic acid challenge measured after 30 mins by radioimmunoassay relative to vehicle-treated control
Mus musculus [19] = experiment: Antithrombotic activity in C57BL/6 mouse assessed as reduction of 6-keto-PGF1alpha level in urine at 20 mg/kg, po administered 3 days measured for 24 hrs post third dose; type: functional, organism-based; set-up: dose 20 mg/kg
Mus musculus [20] = experiment: Antithrombotic activity in C57BL/6 mouse assessed as reduction of 11-dehydro-TXB2 level in urine at 20 mg/kg, po administered 3 days measured for 24 hrs post third dose relative to vehicle-treated control; type: functional; set-up: scale not given: the % may be the effect or the level left
[21] = molecular target: T3, Prostaglandin G/H synthase 2 (Homo sapiens) (UniProt P35354); experiment: Inhibition of COX-2 in human whole blood assessed as inhibition of LPS-induced plasma PGE2 level at 1000 uM by radioimmunoassay relative to control
T3 sequence (whole entry): T1 sequence (P35354 whole entry)

[22] = molecular target: T2, Prostaglandin G/H synthase 1; experiment: Reversible inhibition of COX-1 in human THP1 cells assessed as inhibition of arachidonic acid-induced TXB2 formation at 100 uM incubated for 30 mins followed by compound washout measured 30 mins post arachidonic acid challenge by radioimmunoassay; type: cell-based; settings: THP-1
[23] = molecular target: T2, Prostaglandin G/H synthase 1; experiment: Inhibition of COX-1 in human washed platelet assessed as rightward shift in 10 uM arachidonic acid-induced TXB2 formation at 0.01 to 100 uM incubated for 25 mins prior to arachidonic acid challenge measured after 30 mins by radioimmunoassay
[24] = molecular target: T2, Prostaglandin G/H synthase 1; experiment: Inhibition of COX-1 (unknown origin) in platelet rich plasma assessed as inhibition of collagen-induced platelet aggregation at 30 uM incubated for 5 mins prior to collagen challenge measured for 5 mins by aggregometric analysis relative to vehicle-treated control
[25] = molecular target: T2, Prostaglandin G/H synthase 1; experiment: Inhibition of COX-1 (unknown origin) in platelet rich plasma assessed as inhibition of arachidonic acid-induced platelet aggregation at 30 uM incubated for 5 mins prior to arachidonic acid challenge measured for 5 mins by aggregometric analysis relative to vehicle-treated control
[26] = molecular target: Prostaglandin G/H synthase 2 (Homo sapiens) (UniProt P35354); experiment: Irreversible inhibition of COX-2 in human MDA-MB-231 cells assessed as inhibition of arachidonic acid-induced PGE2 formation at 100 uM incubated for 30 mins followed by compound washout measured 30 mins post arachidonic acid challenge by radioimmunoassay

IC50 [1]: > 100 µM
IC50 [2]: > 100 µM
SMILES: O=C(OCCCO[N+](=O)[O-])c1onc(-c2ccc(Cl)o2)c1-c1ccccc1

inhibition [4]: Active
inhibition [5]: > 90%
inhibition [6]: Active
inhibition [7]: Active
SMILES: CC(=O)Oc1ccccc1C(=O)O [ASPIRIN]
Activity (Mus musculus [3]): 70%
Activity (Homo sapiens): 70%

inhibition [4]: Active
inhibition [5]: > 90%
inhibition [6]: Active
IC50 [8]: 7.6 µM
inhibition [8]: Dose-dependent effect
IC50 [9]: 3.4 µM
inhibition [9]: Dose-dependent effect
inhibition [10]: 78%
inhibition [11]: inactive
inhibition [12]: Dose-dependent effect
inhibition [13]: 96.3%
inhibition [14]: inactive
Activity [15]: 96.1%
Ratio IC50 [16]: 103
IC50 [1]: 34 µM
IC50 [2]: 0.33 µM
inhibition [7]: Active
inhibition [17]: Active
inhibition [18]: 70%
SMILES: Cc1onc(-c2ccc(Br)o2)c1-c1ccccc1

IC50 [1]: > 100 µM
IC50 [2]: > 100 µM
SMILES: O=C(OCCCN1CCOCC1)c1onc(-c2ccc(Cl)o2)c1-c1ccccc1

Ratio IC50 [16]: 9.05
IC50 [1]: 17.2 µM
SMILES: Cc1onc(-c2ccc(Cl)o2)c1-c1ccc(F)cc1

inhibition [4]: Active
inhibition [5]: > 90%
inhibition [6]: Active
IC50 [8]: 10 µM
inhibition [8]: Dose-dependent effect
IC50 [9]: 3.7 µM
inhibition [9]: Dose-dependent effect
inhibition [10]: 72%
inhibition [11]: inactive
inhibition [12]: Dose-dependent effect
inhibition [13]: 99.2%
inhibition [14]: inactive
Activity [15]: 94.3%
inhibition [21]: 49%
Ratio IC50 [16]: > 123
inhibition [7]: Active
inhibition [17]: Active
inhibition [18]: 70%
SMILES: FC(F)(F)c1onc(-c2ccc(Cl)o2)c1-c1ccccc1
Activity (Mus musculus [19]): inactive
Activity (Mus musculus [20]): 70%

Ratio IC50 [16]: 9.29
IC50 [1]: 20.4 µM
IC50 [2]: 2.2 µM
SMILES: Cc1onc(-c2ccco2)c1-c1ccccc1

Ratio IC50 [16]: > 5.79
IC50 [1]: > 100 µM
IC50 [2]: 17.3 µM
SMILES: COC(=O)c1c(-c2ccccc2)noc1-c1ccccc1

Ratio IC50 [16]: > 5.75
IC50 [1]: > 100 µM
IC50 [2]: 17.4 µM
SMILES: COC(=O)c1c(-c2ccc(Cl)o2)noc1-c1ccccc1

inhibition [22]: Active
inhibition [5]: > 90%
SMILES: CC(C)Cc1ccc(C(C)C(=O)O)cc1 (stereo unspecified)

IC50 [8]: 18.6 µM
IC50 [9]: 12 µM
Activity [15]: 95.7%
SMILES: Cc1onc(-c2ccc(Cl)o2)c1-c1ccccc1

inhibition [22]: Active
inhibition [5]: > 90%
inhibition [23]: Active
IC50 [8]: 23 µM
IC50 [9]: 20 µM
inhibition [24]: 62%
inhibition [25]: 97%
inhibition [21]: 40%
Ratio IC50 [16]: > 20
IC50 [2]: 5 µM
inhibition [7]: Active
inhibition [18]: inactive
SMILES: CC(=O)OCc1onc(-c2ccc(Cl)o2)c1-c1ccccc1

inhibition [4]: Active
inhibition [5]: > 90%
inhibition [6]: Active
IC50 [8]: 7.4 µM
inhibition [8]: Dose-dependent effect
IC50 [9]: 4.3 µM
inhibition [9]: Dose-dependent effect
inhibition [10]: 66%
inhibition [11]: inactive
inhibition [12]: Dose-dependent effect
inhibition [13]: 97.8%
inhibition [14]: inactive
Activity [15]: 94.7%
Ratio IC50 [16]: 213
IC50 [1]: 68.2 µM
IC50 [2]: 0.32 µM
inhibition [7]: Active
inhibition [26]: Active
inhibition [18]: 70%
SMILES: Cc1ccc(-c2noc(C)c2-c2ccccc2)o1

IC50 [1]: > 100 µM
IC50 [2]: > 100 µM
SMILES: O=C(O)c1c(-c2ccccc2)noc1-c1ccccc1

Ratio IC50 [16]: > 23.8
IC50 [1]: > 100 µM
SMILES: OCc1onc(-c2ccc(Cl)o2)c1-c1ccccc1

IC50 [1]: > 100 µM
IC50 [2]: > 100 µM
SMILES: O=C(O)c1c(-c2ccc(Cl)o2)noc1-c1ccccc1

Ratio IC50 [16]: 0.21
IC50 [1]: 0.27 µM
IC50 [2]: 1.3 µM
SMILES: Cc1onc(-c2cccc(Cl)c2)c1-c1ccccc1

Ratio IC50 [16]: 4.07
IC50 [1]: 1.1 µM
IC50 [2]: 0.27 µM
SMILES: Cc1onc(-c2ccccc2Cl)c1-c1ccccc1

Ratio IC50 [16]: > 52.6
SMILES: Cc1onc(-c2ccc(Cl)o2)c1-c1ccccc1F

IC50 [1]: > 100 µM
IC50 [2]: > 100 µM
SMILES: CC(=O)/C(=C(\N)c1ccc(Cl)o1)c1ccccc1

IC50 [1]: > 100 µM
IC50 [2]: > 100 µM
SMILES: Cc1onc(C2CCCO2)c1-c1ccccc1 (stereo unspecified)

IC50 [1]: > 100 µM
IC50 [2]: > 100 µM
SMILES: O=C(O)c1onc(-c2ccc(Cl)o2)c1-c1ccccc1

Ratio IC50 [16]: > 2.7
IC50 [1]: > 100 µM
IC50 [2]: 37 µM
SMILES: CC(=O)/C(=C(\N)c1ccco1)c1ccccc1

Ratio IC50 [16]: > 5.21
IC50 [1]: > 100 µM
IC50 [2]: 19.2 µM
SMILES: COC(=O)c1onc(-c2ccc(Cl)o2)c1-c1ccccc1
